As usually defined, the melting point is the temperature of the solid-liquid transition.

The values that follow come from patent US7569570B2, “Thienopyrimidines, process for preparing the same and use thereof” (Takeda Pharmaceutical Company Limited, priority 2002, dated 2009).

In turn, `CCNC(=O)Nc1ccc(-c2sc3c(c2CN(C)CCC(=O)NCCOC)c(=O)n(-c2ccccc2)c(=O)n3Cc2c(F)cccc2F)cc1` [Example 95, 3-[{[1-(2,6-difluorobenzyl)-6-(4-{[(ethylamino)carbonyl]amino}phenyl)-2,4-dioxo-3-phenyl-1,2,3,4-tetrahydrothieno[2,3-d]pyrimidin-5-yl]methyl}(methyl)amino]-N-(2-methoxyethyl)propanamide] returned a melting point of 240 to 244 °C.

`CCNC(=O)Nc1ccc(-c2sc3c(c2CN(C)CCOC)c(=O)n(-c2ccc(OCCNS(C)(=O)=O)cc2)c(=O)n3Cc2c(F)cccc2F)cc1` [Example 106] gave a melting point of 232 to 235 °C. The same measure for `CCNC(=O)Nc1ccc(-c2sc3c(c2CN(C)CCN2CCCC2=O)c(=O)n(-c2ccccc2)c(=O)n3Cc2c(F)cccc2F)cc1` [Example 20, N-{4-[1-(2,6-difluorobenzyl)-5-({methyl[2-(2-oxo-1-pyrrolidinyl)ethyl]amino}methyl)-2,4-dioxo-3-phenyl-1,2,3,4-tetrahydrothieno[2,3-d]pyrimidin-6-yl]phenyl}-N′-ethylurea]: 140 to 142 °C.

Molecule `CCNC(=O)Nc1ccc(-c2sc3c(c2CN(C)CCC(=O)N(C)C)c(=O)n(-c2ccc(OCCOC)cc2)c(=O)n3Cc2c(F)cccc2F)cc1` [Example 100, 3-[({1-2,6-(difluorobenzyl)-6-(4-{[(ethylamino)carbonyl]amino}phenyl)-3-[4-(2-methoxyethoxy)phenyl]-2,4-dioxo-1,2,3,4-tetrahydrothieno[2,3-d]pyrimidin-5-yl)methyl)(methyl)amino)-N,N-dimethylpropanamide] returned a melting point of 215 to 218 °C. The same measure for `CCNC(=O)Nc1ccc(-c2sc3c(c2CN(C)CCOC)c(=O)n(-c2ccc(OCc4ccccc4)cc2)c(=O)n3Cc2c(F)cccc2F)cc1` [Example 102]: 223 to 225 °C; for `CCNC(=O)Nc1ccc(-c2sc3c(c2CN(C)CCN(C)S(C)(=O)=O)c(=O)n(-c2ccc(OCCOC)cc2)c(=O)n3Cc2c(F)cccc2F)cc1` [Example 38, N-{2-[({1-2,6-(difluorobenzyl)-6-(4-{[(ethylamino)carbonyl]amino}phenyl)-3-[4-(2-methoxyethoxy)phenyl]-2,4-dioxo-1,2,3,4-tetrahydrothieno[2,3-d]pyrimidin-5-yl)methyl)(methyl)amino)ethyl)-N-methylsulfonamide]: 197 to 199 °C; for `CCNC(=O)Nc1ccc(-c2sc3c(c2CN(C)CCOC)c(=O)n(-c2ccc(NC(C)=O)cc2)c(=O)n3Cc2c(F)cccc2F)cc1` [Example 98, N-[4-(3-(4-acetoaminophenyl)-1-(2,6-difluorobenzyl)-5-{[2-methoxyethyl(methyl)amino]methyl}-2,4-dioxo-1,2,3,4-tetrahydrothieno[2,3-d]pyrimidin-6-yl)phenyl]-N′-ethylurea]: 218 to 220 °C. The same measure for `CCNC(=O)Nc1ccc(-c2sc3c(c2CN(C)CCC(=O)N2CCCC2)c(=O)n(-c2ccccc2)c(=O)n3Cc2c(F)cccc2F)cc1` [Example 94, N-{4-[1-(2,6-difluorobenzyl)-5-({methyl[3-oxo-3-(1-pyrrolidinyl)propyl]amino}methyl)-2,4-dioxo-3-phenyl-1,2,3,4-tetrahydrothieno[2,3-d]pyrimidin-6-yl]phenyl}-N′-ethylurea]: 240 to 244 °C.

Molecule `CCNC(=O)Nc1ccc(-c2sc3c(c2CN(C)C2CCCCC2)c(=O)n(-c2ccccc2)c(=O)n3Cc2c(F)cccc2F)cc1` [Example 91, N-{4-[5-{[cyclohexyl(methyl)amino]methyl}-1-(2,6-difluorobenzyl)-2,4-dioxo-3-phenyl-1,2,3,4-tetrahydrothieno[2,3-d]pyrimidin-6-yl]phenyl}-N′-ethylurea] gave a melting point of 210 to 212 °C. With `CCNC(=O)Nc1ccc(-c2sc3c(c2CN(C)CCC(=O)N(C)C)c(=O)n(-c2ccccc2)c(=O)n3Cc2c(F)cccc2F)cc1` [Example 10, 3-[{[1-(2,6-difluorobenzyl)-6-(4-{[(ethylamino)carbonyl]amino}phenyl)-2,4-dioxo-3-phenyl-1,2,3,4-tetrahydrothieno[2,3-d]pyrimidin-5-yl]methyl}(methyl)amino]-N,N-dimethylpropanamide] the figure was 236 to 237 °C; with `CCNC(=O)Nc1ccc(-c2sc3c(c2CN(C)CCOC)c(=O)n(-c2ccc(OCCOC)c(OCCOC)c2)c(=O)n3Cc2c(F)cccc2F)cc1` [Example 101, N-[4-(3-[3,4-bis(2-methoxyethoxy)phenyl]-1-(2,6-difluorobenzyl)-5-{[(2-methoxyethyl)(methyl)amino]methyl}-2,4-dioxo-1,2,3,4-tetrahydrothieno[2,3-d]pyrimidin-6-yl)phenyl]-N′-ethylurea], 206 to 208 °C; with `CCNC(=O)Nc1ccc(-c2sc3c(c2CN(C)CCOC)c(=O)n(-c2ccc(OCCO)cc2)c(=O)n3Cc2c(F)cccc2F)cc1` [Example 108], 236 to 238 °C.

`CCNC(=O)Nc1ccc(-c2sc3c(c2CN(C)CCOC)c(=O)n(-c2ccc(N)cc2)c(=O)n3Cc2c(F)cccc2F)cc1` [Example 97, N-[4-(3-(4-aminophenyl)-1-(2,6-difluorobenzyl)-5-{[2-methoxyethyl(methyl)amino]methyl}-2,4-dioxo-1,2,3,4-tetrahydrothieno[2,3-d]pyrimidin-6-yl)phenyl]-N′-ethylurea] gave a melting point of 205 to 207 °C. `CCNC(=O)Nc1ccc(-c2sc3c(c2CN(C)CCN(C)S(C)(=O)=O)c(=O)n(-c2ccc(F)cc2)c(=O)n3Cc2c(F)cccc2F)cc1` [Example 37, N-{2-[{[1-(2,6-difluorobenzyl)-6-(4-{[(ethylamino)carbonyl]amino}phenyl)-3-(4-fluorophenyl)-2,4-dioxo-1,2,3,4-tetrahydrothieno[2,3-d]pyrimidin-5-yl]methyl}(methyl)amino]ethyl}-N-methylsulfonamide] had a melting point of 228 to 230 °C. The same measure for `CCNC(=O)Nc1ccc(-c2sc3c(c2CN(C)C[C@@H]2CCCN2S(C)(=O)=O)c(=O)n(-c2ccccc2)c(=O)n3Cc2c(F)cccc2F)cc1` [Example 84]: 189 to 191 °C; for `CCNC(=O)Nc1ccc(-c2sc3c(c2CNC)c(=O)n(-c2ccc(OCCOC)cc2)c(=O)n3Cc2c(F)cccc2F)cc1` [Example 28, N-(4-{1-(2,6-difluorobenzyl)-3-[4-(2-methoxyethoxy)phenyl]-5-[(methylamino)methyl]-2,4-dioxo-1,2,3,4-tetrahydrothieno[2,3-d]pyrimidin-6-yl}phenyl)-N′-ethylurea]: 203 to 205 °C. With `CCNC(=O)Nc1ccc(-c2sc3c(c2CN(C)CCC(=O)N(C)C)c(=O)n(-c2ccc(F)cc2)c(=O)n3Cc2c(F)cccc2F)cc1` [Example 32] the figure was 210 to 212 °C; with `CCNC(=O)Nc1ccc(-c2sc3c(c2CN(C)CCOCCOCC)c(=O)n(-c2ccccc2)c(=O)n3Cc2c(F)cccc2F)cc1` [Example 111, N-[4-(1-(2,6-difluorobenzyl)-5-[{[2-(2-ethoxy)ethoxy]ethyl(methyl)amino}methyl]-2,4-dioxo-3-phenyl-1,2,3,4-tetrahydrothieno[2,3-d]pyrimidin-6-yl)phenyl]-N′-ethylurea], 230 to 233 °C; with `CCNC(=O)Nc1ccc(-c2sc3c(c2CN(C)CCC(=O)NC)c(=O)n(-c2ccc(OCCOC)cc2)c(=O)n3Cc2c(F)cccc2F)cc1` [Example 31], 163 to 165 °C. With `CCNC(=O)Nc1ccc(-c2sc3c(c2CN(C)CCN2CCCC2=O)c(=O)n(-c2ccc(F)cc2)c(=O)n3Cc2c(F)cccc2F)cc1` [Example 33] the figure was 204 to 206 °C.

`CCNC(=O)Nc1ccc(-c2sc3c(c2CN(C)CCNC(C)=O)c(=O)n(-c2ccccc2)c(=O)n3Cc2c(F)cccc2F)cc1` [Example 19, N-{2-[{[1-(2,6-difluorobenzyl)-6-(4-{[(ethylamino)carbonyl]amino}phenyl)-2,4-dioxo-3-phenyl-1,2,3,4-tetrahydrothieno[2,3-d]pyrimidin-5-yl]methyl}(methyl)amino]ethyl}acetamide]: the melting point lay within 185 to 186 °C. With `CCNC(=O)Nc1ccc(-c2sc3c(c2CN(C)CCOC)c(=O)n(-c2ccc(OCCOC(C)=O)cc2)c(=O)n3Cc2c(F)cccc2F)cc1` [Example 107, 2-[4-(1-(2,6-difluorobenzyl)-6-(4-{[(ethylamino)carbonyl]amino}phenyl)-5-([(2-methoxyethyl(methyl)amino)methyl]-2,4-dioxo-1,2,3,4-tetrahydrothieno[2,3-d]pyrimidin-3(2H)-yl}phenoxy)ethyl acetate] the figure was 212 to 215 °C; with `CCNC(=O)Nc1ccc(-c2sc3c(c2CN(C)CCN2CCOC2=O)c(=O)n(-c2ccccc2)c(=O)n3Cc2c(F)cccc2F)cc1` [Example 24], 153 to 155 °C. The same measure for `CCNC(=O)Nc1ccc(-c2sc3c(c2CN(C)C(C)C)c(=O)n(-c2ccccc2)c(=O)n3Cc2c(F)cccc2F)cc1` [Example 92, N-[4-(1-(2,6-difluorobenzyl)-5-{[isopropyl (methyl)amino]methyl}-2,4-dioxo-3-phenyl-1,2,3,4-tetrahydrothieno[2,3-d]pyrimidin-6-yl)phenyl]-N′-ethylurea]: 208 to 210 °C. `CCNC(=O)Nc1ccc(-c2sc3c(c2CN(C)CCC(=O)NC)c(=O)n(-c2ccc(F)cc2)c(=O)n3Cc2c(F)cccc2F)cc1` [Example 30] came in with a melting point of 237 to 239 °C. The same measure for `CCNC(=O)Nc1ccc(-c2sc3c(c2CN(C)CCOCCOC)c(=O)n(-c2ccccc2)c(=O)n3Cc2c(F)cccc2F)cc1` [Example 109, N-[4-(1-(2,6-difluorobenzyl)-5-{[[2-(2-methoxyethoxy)ethyl](methyl)amino]methyl}-2,4-dioxo-3 phenyl-1,2,3,4-tetrahydrothieno[2,3-d]pyrimidin-6-yl)phenyl]-N′-ethylurea]: 228 to 231 °C. The same measure for `CCNC(=O)Nc1ccc(-c2sc3c(c2CN(C)CC2CCN(C)C2=O)c(=O)n(-c2ccc(F)cc2)c(=O)n3Cc2c(F)cccc2F)cc1` (stereo not drawn) [Example 36, N-(4-[1-(2,6-difluorobenzyl)-3-(4-fluorophenyl)-5-({methyl[(1-methyl-2-oxo-3-pyrrolidinyl)methyl]amino}methyl)-2,4-dioxo-1,2,3,4-tetrahydrothieno[2,3-d]pyrimidin-6-yl]phenyl}-N′-ethylurea]: 233 to 234 °C.
